Patent US20140303090A1, “Smac Mimetic Therapy” (TETRALOGIC PHARMACEUTICALS CORPORATION, priority 2013, published 2014)
Where two headings read alike, the source gives them in different places.

Legend:
[1] = cited from earlier work
xenograft = settings: cited from earlier work
cytoplasmic cIAP-2 = cytoplasmic cIAP-2 (Homo sapiens, UniProt Q13489); assay: Western blot of cytoplasmic cIAP-2 in GFP-cIAP-2 A375 cells; settings: 100 nM, 0 to 240 minutes
Protocol: (§7) The stable cell lines expressing GFP-cIAP-1 or GFP-cIAP-2 were cultured in 10 cm dishes in sub-confluence overnight. […] The lysate was cleared by centrifugation (14000 rpm) at 4° C. for 10 minutes and the supernatant was subjected to the co-immunoprecipitation experiment. The protein concentration of the supernatant was measured by using Bradford reagent (Sigma). Co-immunoprecipitation was carried out with 600 μg of the total protein and 1 μg of anti-TRAF 2 antibody (Cell Signaling). After the incubation at 4° C. for overnight, 25 μL protein A/G beads (Invitrogen) was added to precipitate the immunocomplex. The beads were washed with the lysis buffer three times, followed by dissolving with 25 μL SDS-Loading buffer (Invitrogen).
(§8) The membrane was soaked with the blocking buffer (LICOR) for 30 minutes, followed by incubation with the primary antibodies, cIAP-1 and cIAP-2 (R&D Systems), at 4° C. for overnight. After the incubation, the membrane was washed three times with TBS-T buffer (Invitrogen) and incubated with IRDye anti-goat antibody (LICOR) at 37° C. for 45 minutes. Following 5 times washings, the membrane was scanned by The Odyssey Infrared Imaging System (LICOR).

TRAF2-bound cIAP-2 = TRAF2-bound cIAP-2 (Homo sapiens, UniProt Q13489); assay: Anti-TRAF2 co-immunoprecipitation and western blot of TRAF2-bound cIAP-2 in GFP-cIAP-2 A375 cells; settings: 100 nM, 0 to 240 minutes
Chain of TRAF2-bound cIAP-2 (Q13489 whole entry): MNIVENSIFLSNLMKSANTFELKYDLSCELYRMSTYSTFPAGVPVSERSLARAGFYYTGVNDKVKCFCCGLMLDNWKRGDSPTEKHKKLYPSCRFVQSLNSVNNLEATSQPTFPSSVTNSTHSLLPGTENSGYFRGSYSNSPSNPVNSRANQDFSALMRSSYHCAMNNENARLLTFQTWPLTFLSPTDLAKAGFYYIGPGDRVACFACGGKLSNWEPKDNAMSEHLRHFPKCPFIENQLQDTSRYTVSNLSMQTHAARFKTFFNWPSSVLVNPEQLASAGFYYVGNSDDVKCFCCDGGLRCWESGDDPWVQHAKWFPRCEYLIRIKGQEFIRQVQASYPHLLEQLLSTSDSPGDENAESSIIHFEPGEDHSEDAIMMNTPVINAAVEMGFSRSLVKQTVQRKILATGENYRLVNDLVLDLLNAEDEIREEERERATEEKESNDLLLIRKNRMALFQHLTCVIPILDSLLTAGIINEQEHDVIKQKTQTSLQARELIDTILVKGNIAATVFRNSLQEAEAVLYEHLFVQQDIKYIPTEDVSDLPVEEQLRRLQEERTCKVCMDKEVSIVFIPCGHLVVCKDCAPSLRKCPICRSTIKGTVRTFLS
Chain of TRAF2-bound cIAP-2 (Q12933 whole entry partner): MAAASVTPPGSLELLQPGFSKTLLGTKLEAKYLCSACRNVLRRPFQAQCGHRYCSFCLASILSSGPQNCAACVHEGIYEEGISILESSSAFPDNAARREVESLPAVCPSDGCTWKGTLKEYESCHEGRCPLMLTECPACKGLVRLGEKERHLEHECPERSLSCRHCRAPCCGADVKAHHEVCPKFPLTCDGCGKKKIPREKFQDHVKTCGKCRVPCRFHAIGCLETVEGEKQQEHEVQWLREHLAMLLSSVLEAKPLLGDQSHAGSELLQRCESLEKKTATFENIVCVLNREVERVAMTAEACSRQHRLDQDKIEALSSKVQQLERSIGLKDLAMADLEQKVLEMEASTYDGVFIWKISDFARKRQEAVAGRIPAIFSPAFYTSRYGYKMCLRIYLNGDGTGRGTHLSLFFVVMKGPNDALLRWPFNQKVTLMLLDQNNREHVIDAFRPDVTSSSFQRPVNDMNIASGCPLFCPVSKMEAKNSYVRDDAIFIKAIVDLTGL
Protocol: as §7, §8

[2] = target: cIAP-1 (cytoplasmic and TRAF2-bound) (Homo sapiens, UniProt Q13490); assay: Co-immunoprecipitation and western blot, cytoplasmic versus TRAF2-bound cIAP-1 in GFP-cIAP-1 A375 cells; settings: 100 nM, 0 to 240 minutes, visual
Chain of cIAP-1 (cytoplasmic and TRAF2-bound) (Q13490 whole entry): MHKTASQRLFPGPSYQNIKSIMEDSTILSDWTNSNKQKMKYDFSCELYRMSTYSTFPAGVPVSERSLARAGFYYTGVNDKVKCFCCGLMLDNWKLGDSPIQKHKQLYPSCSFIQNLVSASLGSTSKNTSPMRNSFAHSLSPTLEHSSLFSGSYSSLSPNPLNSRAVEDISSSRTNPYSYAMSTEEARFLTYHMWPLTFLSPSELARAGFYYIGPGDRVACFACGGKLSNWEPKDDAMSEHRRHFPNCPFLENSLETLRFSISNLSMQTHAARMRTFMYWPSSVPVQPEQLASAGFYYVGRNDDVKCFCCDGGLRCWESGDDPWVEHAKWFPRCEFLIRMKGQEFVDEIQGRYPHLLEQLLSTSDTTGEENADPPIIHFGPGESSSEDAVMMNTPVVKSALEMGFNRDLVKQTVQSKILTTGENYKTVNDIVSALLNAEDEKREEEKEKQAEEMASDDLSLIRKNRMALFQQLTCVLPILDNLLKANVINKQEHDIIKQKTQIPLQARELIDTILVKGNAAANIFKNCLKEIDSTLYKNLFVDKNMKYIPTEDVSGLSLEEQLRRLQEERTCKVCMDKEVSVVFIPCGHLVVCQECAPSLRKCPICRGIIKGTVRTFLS
Protocol: as §7, §8

[3] = system: DAP-mediated NF-κB-luc (NOD1); assay: DAP-stimulated NF-kB luciferase reporter gene assay (NOD1 signaling) in HCT116 cells; format: cell-based, human; settings: for Inhibition of DAP-mediated NF-κB-luc, % Inhibition: 10 μM Smac mimetic, HCT116 cells
Protocol: (§1) To assay effects on XIAP E3 ubiquitin ligase activity manifested as NF-kB activation, we established both DAP- and MDP-stimulated luciferase reporter gene assays in which Smac mimetics are evaluated in cells at a single 10 μM drug concentration. Specifically, we developed stable cell lines with HCT116 cells (human colon cancer) that carry the NF-kB-luciferase reporter gene under the regulation of NF-kB promoter activation elements. The assay was carried out as follows: • 1. HCT116 (3-3) cells were cultured in white wall 96-wells plate (50,000 cells/50 μL/well) for overnight at 37° C. • 2. […] The luciferase activity in each well was measured by using Steady-Glo® Luciferase Assay System (Promega Corp.). 48 μL of luminescence detection reagent was added in each well, followed by brief agitation. The plate was left in dark for 15 minutes and then the luminescence activity was measured by using microplate reader Victor2 (PerkinElmer Life and Analytical Science, Shelton, Conn.). • 4. Calculation:
(§2) Luciferase activity in no ligand (i.e., […]) treatment wells=background (BG)
(§3) Luciferase activity in ligand only treatment wells=positive control (PC)
(§4) Luciferase activity in Smac mimetic (SM)+ligand treatment wells=Test • i) Test<PC
(§5) Inhibitory activity by SM(%)=100×[(PC−Test)/(PC−BG)] • ii) Test>PC
(§6) Activation by SM(%)=100×[(Test−BG)/(PC−BG)]

[4] = system: MDP-mediated NF-κB-luc (NOD2); assay: MDP-stimulated NF-kB luciferase reporter gene assay (NOD2 signaling) in HCT116 cells; format: cell-based, human; settings: for Inhibition of MDP-mediated NF-κB-luc, % Inhibition: 10 μM Smac mimetic, HCT116 cells
Protocol: as §1, §2, §3, §4, §5, §6

XIAP BIR3 = XIAP BIR3 (Homo sapiens, UniProt P98170); assay: Fluorescence polarization displacement assay, XIAP BIR3
Chain of XIAP BIR3 (P98170 241-356 limits assumed): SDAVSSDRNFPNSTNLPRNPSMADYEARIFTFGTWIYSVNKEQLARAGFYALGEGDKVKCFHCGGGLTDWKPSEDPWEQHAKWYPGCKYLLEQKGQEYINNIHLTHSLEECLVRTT
Source text: (§9) To establish protein-ligand binding affinity, we employed a fluorescence polarization assay. This assay monitored the displacement of an IAP binding motif (IBM)-containing peptide, Abu-RPFK(5-carboxyfluorescein)-NH2, from the Type III BIR domains of cIAP1, cIAP2, XIAP, and ML-IAP.

GFP-cIAP2 [5] = target: T1, GFP-cIAP2 (Homo sapiens, UniProt Q13489); assay: GFP-cIAP2 degradation assay (loss of GFP signal, flow cytometry); format: cell-based
T1 construct: expressed in transfected cells
T1 sequence (Q13489 whole entry): as the sequence (Q13489 whole entry) above
Source text: In this assay, treatment of GFP-cIAP-expressing melanoma cell line A375 with Smac mimetic, Compound 15, for two hours, results in degradation of cIAP-1 and cIAP-2 with concomitant loss of GFP-signal.

GFP-cIAP2 [6] = target: T1, GFP-cIAP2; assay: GFP-cIAP2 degradation assay (loss of GFP signal, flow cytometry); format: cell-based; settings: read-out: ΔGFP-cIAP2 EC50, 24 h
WT murine BMDMs = assay: IL-1β secretion from LPS-primed WT bone marrow-derived macrophages; format: cell-based; settings: 24 h
Source text: Given the heightened activity of 2 versus 1 on cIAP2, we speculated that the improved tolerability of 1 might also be associated with reduced antagonism of XIAP functional activity in this system. We thus evaluated a selection of Smac-mimetics in both LPS-primed wild-type (WT) and XIAP knockout (Xiap^−/−) murine BMDMs to assess their capacity to induce the secretion of IL-1β following treatment with Smac-mimetic (FIG. 4).
WT and Xiap^−/− BMDMs were primed with LPS±the indicated concentration of Smac-mimetics for 24 h. WT BMDM results are presented as the mean±SEM (n=3 biological independent repeats). […] Total levels of IL-1β induced by Smac-mimetics in these assays varied but the trend was identical.

Xiap−/− murine BMDMs = assay: IL-1β secretion from LPS-primed XIAP knockout bone marrow-derived macrophages; format: cell-based; settings: 24 h
Protocol: We thus evaluated a selection of Smac-mimetics in both LPS-primed wild-type (WT) and XIAP knockout (Xiap^−/−) murine BMDMs to assess their capacity to induce the secretion of IL-1β following treatment with Smac-mimetic (FIG. 4).
WT and Xiap^−/− BMDMs were primed with LPS±the indicated concentration of Smac-mimetics for 24 h. WT BMDM results are presented as the mean±SEM (n=3 biological independent repeats).

Tolerability = settings: in vivo
Source text: . Binding of IAP antagonists to cIAP1 proteins induces a conformational rearrangement that exposes the RING domain. Once exposed, the RING domain dimerizes and E3 ubiquitin ligase activity is activated. Using a range of assays that evaluated cIAP1 stability; NF-κB activation; cIAP1 oligomeric state; […]. Birinapant-induced loss of cIAPs correlated with inhibition of TNF-mediated NF-κB activation, caspase activation, tumor cell killing, and tumor regression. Birinapant was well-tolerated. […]. […]; (ii.) decreased affinity for XIAP BIR3; (iii.) decreased ability to inhibit XIAP-dependent NOD signaling, despite its activity in an XIAP-dependent caspase-3 activation assay; and, (iv.) decreased pro-inflammatory IL-1β secretion. […]

cIAP2 BIR3 = cIAP2 BIR3 (Homo sapiens, UniProt Q13489); assay: Fluorescence polarization displacement assay, cIAP2 BIR3; settings: for Ki: read-out: cIAP2 BIR3, Ki
Chain of cIAP2 BIR3 (Q13489 238-349 limits assumed): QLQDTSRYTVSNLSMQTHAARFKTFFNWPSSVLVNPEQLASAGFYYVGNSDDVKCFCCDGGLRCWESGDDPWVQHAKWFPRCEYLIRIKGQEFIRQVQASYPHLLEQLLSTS
Source text: as §9

[7] = read-out: ΔGFP-cIAP2 EC50, 2 h, 2 h, A375 cells

Chain of cytoplasmic cIAP-2 (Q13489 whole entry): as the sequence (Q13489 whole entry) above

## CN[C@@H](C)C(=O)N[C@H](C(=O)N1C[C@@H](O)C[C@H]1Cc1c(-c2[nH]c3cc(F)ccc3c2C[C@@H]2C[C@H](O)CN2C(=O)[C@@H](NC(=O)[C@H](C)NC)[C@@H](C)OC)[nH]c2cc(F)ccc12)[C@@H](C)OC [Compound 5]
[1]
  tolerability in rats compared to Compound 15: less well-tolerated
xenograft
  antitumor activity compared to Compound 15: comparable antitumor activity
Cytoplasmic cIAP-2
  degradation of cytoplasmic cIAP-2: degraded
TRAF2-bound cIAP-2
  degradation of TRAF2-bound cIAP-2: degraded
[2]
  extent of degradation of cytoplasmic cIAP-1 versus cIAP-1 bound to TRAF2: approximately the same

## CN[C@@H](C)C(=O)N[C@H](C(=O)N1C[C@@H](O)C[C@H]1Cc1c(Cc2[nH]c3cc(F)ccc3c2C[C@@H]2C[C@H](O)CN2C(=O)[C@@H](NC(=O)[C@H](C)NC)C(C)(C)C)[nH]c2cc(F)ccc12)C(C)(C)C [(11)]
[3]
  Inhibition of DAP-mediated NF-κB-luc, % Inhibition: 100 (n = 1) %
[4]
  Inhibition of MDP-mediated NF-κB-luc, % Inhibition: 100 (n = 2) %
XIAP BIR3
  Kd: < 0.001 µM

## CC[C@@H](NC(=O)[C@H](C)NC)C(=O)N1C[C@@H](O)C[C@H]1Cc1c(-c2[nH]c3cc(F)ccc3c2C[C@@H]2C[C@H](O)CN2C(=O)[C@@H](CC)NC(=O)[C@H](C)NC)[nH]c2cc(F)ccc12 [compound 4]
GFP-cIAP2 [5]; [7]
  DC50: 5.72 ± 0.157 µM
TNF-mediated NF-κB-luc
  EC50: 4.98 ± 0.996 µM
GFP-cIAP2 [6]
  DC50: 5.54 ± 0.115 µM

## CN[C@@H](C)C(=O)N[C@H](C(=O)N1C[C@@H](O)C[C@H]1Cc1c(Cc2[nH]c3cc(F)ccc3c2C[C@@H]2C[C@H](O)CN2C(=O)[C@@H](NC(=O)[C@H](C)NC)C(C)(C)C)[nH]c2cc(F)ccc12)C(C)(C)C [(12)]
[3]
  Inhibition of DAP-mediated NF-κB-luc, % Inhibition: 99 (+/−2) %
[4]
  Inhibition of MDP-mediated NF-κB-luc, % Inhibition: 98 (+/−2) %
XIAP BIR3; read-out: XIAP BIR3 Kd
  Kd: < 0.001 µM

## CN[C@@H](C)C(=O)N[C@H](C(=O)N1C[C@@H](O)C[C@H]1Cc1c(Cc2[nH]c3cc(F)ccc3c2C[C@@H]2C[C@H](O)CN2C(=O)[C@@H](NC(=O)[C@H](C)NC)C(C)(C)C)[nH]c2cc(F)ccc12)C(C)(C)C [(13)]
[3]
  Inhibition of DAP-mediated NF-κB-luc, % Inhibition: No inhibition
[4]
  Inhibition of MDP-mediated NF-κB-luc, % Inhibition: No inhibition

## CC[C@@H](NC(=O)[C@@H](C)NC)C(=O)N1C[C@H](O)C[C@@H]1Cc1c(-c2[nH]c3cc(F)ccc3c2C[C@H]2C[C@@H](O)CN2C(=O)[C@@H](CC)NC(=O)[C@@H](C)NC)[nH]c2cc(F)ccc12 [compound 5, ent-birinapant]
GFP-cIAP2 [5]; [7]
  DC50: > 10 µM
TNF-mediated NF-κB-luc
  EC50: > 10 µM
GFP-cIAP2 [6]
  DC50: > 10 µM

## CC[C@H](NC(=O)[C@H](C)NC)C(=O)N1C[C@@H](O)C[C@H]1Cc1c(-c2[nH]c3cc(F)ccc3c2C[C@@H]2C[C@H](O)CN2C(=O)[C@H](CC)NC(=O)[C@H](C)NC)[nH]c2cc(F)ccc12 [birinapant (1), birinapant]
GFP-cIAP2 [5]; [7]
  EC50: 0.108 ± 0.046 µM
[3]; listed as 1
  Inhibition of DAP-mediated NF-κB-luc, % Inhibition: ca. 35%
[3]; listed as Birinapant (1)
  Inhibition of DAP-mediated NF-κB-luc, % Inhibition: 35 (+/−16) %
[3]; @ 2 h
  Inhibition of DAP-mediated NF-KB-luc @ 2 h, % Inhibition: 35 ± 16%
[4]; listed as 1
  Inhibition of MDP-mediated NF-κB-luc, % Inhibition: ca. 35%
[4]; listed as Birinapant (1)
  Inhibition of MDP-mediated NF-κB-luc, % Inhibition: 35 (+/−14) %
[4]
  Inhibition of MDP-mediated NF-KB-luc @ 2 h, % Inhibition: 35 ± 14%
WT murine BMDMs
  IL-1β secretion from LPS-primed WT BMDMs: no increase in IL-1β secretion
Xiap−/− murine BMDMs
  IL-1β secretion in Xiap−/− BMDMs: induced IL-1β secretion
Tolerability
  tolerability: well-tolerated
TNF-mediated NF-κB-luc
  EC50: 0.009 ± 0.005 µM
GFP-cIAP2 [6]
  EC50: 0.151 ± 0.086 µM
cIAP2 BIR3
  reduction of affinity for cIAP2 BIR3 compared with Compound A: approximately 40 fold
  Ki: 0.036 µM
cIAP2 BIR3; listed as Birinapant
  Ki: ~0.036 µM
Cytoplasmic cIAP-2
  degradation of cytoplasmic cIAP-2: substantially non-degraded
TRAF2-bound cIAP-2
  degradation of TRAF2-bound cIAP-2: degraded

## CC[C@H](NC(=O)[C@H](C)NC)C(=O)N1C[C@@H](O)C[C@H]1Cc1c(-c2[nH]c3cc(F)ccc3c2C[C@@H]2C[C@H](O)CN2C(=O)[C@@H](CC)NC(=O)[C@H](C)NC)[nH]c2cc(F)ccc12 [compound 3]
GFP-cIAP2 [5]
  reduced ability to degrade GFP-cIAP2 relative to 1: 100 fold
GFP-cIAP2 [5]; [7]
  DC50: > 10 µM
[4]
  Inhibition of MDP-mediated NF-KB-luc @ 2 h, % Inhibition: No
TNF-mediated NF-κB-luc
  EC50: 1.73 ± 0.985 µM
GFP-cIAP2 [6]
  DC50: 4.93 ± 1.6 µM

## CN[C@@H](C)C(=O)N[C@H](C(=O)N1C[C@@H](O)C[C@H]1Cc1c(Cc2[nH]c3cc(F)ccc3c2C[C@@H]2C[C@H](O)CN2C(=O)[C@@H](NC(=O)[C@H](C)NC)C(C)(C)C)[nH]c2cc(F)ccc12)C(C)(C)C [(14)]
[3]
  Inhibition of DAP-mediated NF-κB-luc, % Inhibition: 74 (+/−14) %
[4]
  Inhibition of MDP-mediated NF-κB-luc, % Inhibition: 86 (+/−9) %
